{"source": "patent US11814652B2", "about": "“Pluripotent stem cell differentiation-promoting agent” (Oriental Yeast Co., Ltd., priority 2018, dated 2023)", "key": {"iPS cells 201B7 strain [1]": {"test_system": "iPS cells 201B7 strain", "assay": "Flow cytometry of Nestin/Pax6 ectodermal markers, differentiation-induction in medium with β-NMN (Example 2)", "type": "cell-based, human", "settings": "ectodermal differentiation-inducing medium with β-NMN 0.1, 0.25 or 1 mM; 2nd, 4th, 7th day; versus absence of β-NMN", "experimental": "The effect of β-NMN on the ectodermal differentiation-induction of the iPS cells was examined. The 201B7 strain was used as the iPS cells. The iPS cells were seeded in a 12-well plate coated with Matrigel (manufactured by Corning Incorporated) according to the manufacturer's protocol at 8×10^5 cells/well. The cells in the 12-well plate were cultured in a culture medium prepared by adjusting an ectodermal differentiation-inducing culture medium of “STEMdiff Trilineage Differentiation kit” (manufactured by STEMCELL Technologies) to have a final concentration of β-NMN of 0, 0.1, 0.25, or 1 mM, and a final concentration of Rock inhibitor of 10 μM for 1 day. From the 1st day after seeding, the medium was replaced every day with a culture medium obtained by removing the Rock inhibitor from the culture medium at the time of seeding. […] Then, the cells were stained with a fluorescence-labeled anti-Nestin antibody (manufactured by Biolegend, clone 10C2) and a fluorescence-labeled anti-Pax6 antibody (manufactured by Becton, Dickinson and Company, clone O18-1330). After washing the stained cells, a flow cytometer “FACScaliber” (manufactured by Becton, Dickinson and Company) was used to analyze the fluorescence intensity of the anti-Nestin antibody and the fluorescence intensity of the anti-Pax6 antibody in each sample. […]"}, "iPS cells 253G1 strain": {"test_system": "iPS cells 253G1 strain", "assay": "Flow cytometry of Sox17/CXCR4 endodermal markers, differentiation-induction in medium with β-NMN (Example 4)", "type": "cell-based", "settings": "endodermal differentiation-inducing medium with β-NMN 0.1, 0.25 or 1 mM; 5th or 7th day; versus absence of β-NMN", "experimental": "The effects of β-NMN on the induction of endodermal differentiation of iPS cells were examined. As the iPS cells, the 253G1 strain was used. The iPS cells were seeded in a 24-well plate coated with Matrigel (manufactured by Corning Incorporated) according to the manufacturer's protocol at 3×10^5 cells/well. The cells in the 24-well plate were cultured in a culture medium for iPS cells adjusted to have a final concentration of Rock inhibitor of 10 μM for 1 day. From the 1st day after seeding, the culture medium was replaced with a culture medium prepared by adjusting an endoderm differentiation-inducing culture medium of “STEMdiff Trilineage Differentiation kit” (manufactured by STEMCELL Technologies) to have a final concentration of β-NMN of 0, 0.1, 0.25, or 1 mM for 1 day. […] Then, the cells were stained with a fluorescence-labeled anti-Sox17 antibody (manufactured by Becton, Dickinson and Company, clone P7-969) and a fluorescence-labeled anti-CXCR4 antibody (manufactured by Biolegend, clone 12G5). After washing the stained cells, a flow cytometer “FACS caliber” (manufactured by Becton, Dickinson and Company) was used to analyze the fluorescence intensity of the anti-Sox17 antibody and the fluorescence intensity of the anti-CXCR4 antibody in each sample. […]"}, "iPS cells 201B7 strain [2]": {"test_system": "iPS cells 201B7 strain", "assay": "Flow cytometry of Brachyury/CD56 mesodermal markers, differentiation-induction in medium with β-NMN (Example 3)", "type": "cell-based, human", "experimental": "The effects of β-NMN on the mesodermal differentiation-induction of iPS cells were examined. The 201B7 strain was used as the iPS cells. The iPS cells were seeded in a 24-well plate coated with Matrigel (manufactured by Corning Incorporated) according to the manufacturer's protocol at 1×10^5 cells/well. The cells in the 24-well plate were cultured in a culture medium for iPS cells adjusted to have a final concentration of Rock inhibitor of 10 μM for 1 day. From the 1st day after seeding, the culture medium was replaced with a culture medium prepared by adjusting a mesoderm differentiation-inducing culture medium of “STEMdiff Trilineage Differentiation kit” (manufactured by STEMCELL Technologies) to have a final concentration of β-NMN of 0, 0.1, 0.25, or 1 mM for 1 day. […] Then, the cells were stained with a fluorescence-labeled anti-Brachyury antibody (manufactured by Merck, clone 3E4.2) and a fluorescence-labeled anti-CD56 antibody (manufactured by Biolegend, clone HCD56). After washing the stained cells, a flow cytometer “FACS caliber” (manufactured by Becton, Dickinson and Company) was used to analyze the fluorescence intensity of the anti-Brachyury antibody and the fluorescence intensity of the anti-CD56 antibody in each sample. […]"}}}
{"smiles": "NC(=O)c1ccc[n+]([C@@H]2O[C@H](COP(=O)([O-])O)[C@@H](O)[C@H]2O)c1", "note": "[β-NMN, β-nicotinamide mononucleotide]", "values": [{"measurement": "ratio of Nestin-positive Pax6-positive cells", "setting": "iPS cells 201B7 strain [1]", "result": "higher"}, {"measurement": "ratio of Sox17-positive CXCR4-positive cells", "setting": "iPS cells 253G1 strain", "result": "no clear difference"}, {"measurement": "ratio of Brachyury-positive CD56-positive cells", "setting": "iPS cells 201B7 strain [2]; mesodermal differentiation-inducing medium with β-NMN 0.1, 0.25 or 1 mM, 5th or 7th day, versus absence of β-NMN", "result": "no clear difference"}, {"measurement": "ratio of Brachyury-positive CD56-positive cells", "setting": "iPS cells 201B7 strain [2]; β-NMN added at 1 mM, versus culturing without β-NMN", "result": "obviously lower"}]}
